Among the test systems are SW-620; NCI/ADR-RES; CAKI-1; MDA-N; MCF7; PC-3; OVCAR-8; HT-29; 786-0; SF-268; SR; EKVX; MDA-MB-435; SK-OV-3; NCI-H23; M14; NCI-H522; SK-MEL-2; UACC-62; SN12C.
Holding throughout (assay): NCI-60 cell line screen, 48 h

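A five-concentration, 48-hour dose response in 96-well plates underlies each endpoint, interpolated linearly between surrounding concentrations. Here, GI50 denotes the concentration required for 50% inhibition of growth.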 The source made the active and inactive calls. Rule as the data show it: active = GI50 up to about 1.1 µM and inactive = higher.

Regarding `Cc1c(O)c(=O)ccn1CCc1c[nH]c2ccccc12`, the GI50 in the experiment with SW-620 is 7.23 µM (inactive); in the experiment with NCI/ADR-RES, 3.1 µM (inactive); in the experiment with CAKI-1 it was 1.21 µM (inactive); with MDA-N it was 23 µM (inactive); in the experiment on MCF7, 4.89 µM (inactive); in the experiment on PC-3 it was 28.4 µM (inactive). Also, the GI50 is 8.39 µM (inactive) with OVCAR-8; 3.75 µM (inactive) in the experiment on HT-29; 2.55 µM (inactive) in the experiment with 786-0; 2.44 µM (inactive) in the experiment with SF-268; 5.73 µM (inactive) in the experiment on SR; 6.31 µM (inactive) in the experiment on EKVX. The GI50 was 17.2 µM (inactive) with MDA-MB-435, 12.5 µM (inactive) in the experiment with SK-OV-3, 20.5 µM (inactive) in the experiment on NCI-H23 and 7.48 µM (inactive) in the experiment on M14.

For `CCOC(=O)c1[nH]c(Br)c(-c2ccc(OC)c(OC)c2)c1Br`, the GI50 with SW-620 is 0.0302 µM (active); with NCI/ADR-RES, 0.00434 µM (active); in the experiment on NCI-H522 it was 0.00991 µM (active); in the experiment on MDA-N, 0.00567 µM (active); with MCF7, 0.245 µM (active); with SK-MEL-2 it was 0.0336 µM (active). Also, the GI50 with PC-3 was 0.0356 µM (active); in the experiment on OVCAR-8 it was 0.0423 µM (active); with UACC-62 it was 0.0418 µM (active); with 786-0, 0.0334 µM (active); in the experiment with SF-268, 0.178 µM (active); in the experiment with SR, 0.0214 µM (active). Also, the GI50 was 4.12 µM (inactive) in the experiment on EKVX; 0.0091 µM (active) in the experiment with MDA-MB-435; 0.0891 µM (active) in the experiment on NCI-H23; 0.117 µM (active) in the experiment with SN12C; 0.028 µM (active) in the experiment on M14.

`O=c1[nH]nc(-c2ccccc2)n1/N=C/c1ccncc1`: the GI50 in the experiment on SW-620, in the experiment with NCI/ADR-RES, in the experiment on NCI-H522, in the experiment with CAKI-1, in the experiment with MDA-N and with MCF7 was > 100 µM (inactive) throughout. In addition, the GI50 in the experiment on PC-3, with OVCAR-8, with UACC-62, in the experiment on HT-29, with 786-0 and in the experiment on SF-268 was > 100 µM (inactive) throughout. Moreover, the GI50 with SR is 74.1 µM (inactive); in the experiment on EKVX, > 100 µM (inactive); in the experiment on MDA-MB-435, > 100 µM (inactive); in the experiment with NCI-H23, > 100 µM (inactive); in the experiment on SN12C it was > 100 µM (inactive); in the experiment with M14 it was > 100 µM (inactive).

On to `COc1cccc(OC)c1NC(=O)C(=O)Nn1c(NNC(=O)c2ccncc2)nc2ccccc2c1=O`, for which the GI50 in the experiment on SW-620, in the experiment on NCI/ADR-RES, in the experiment with NCI-H522, in the experiment with CAKI-1, with MDA-N and in the experiment on MCF7 was > 100 µM (inactive) each time. For the same compound, the GI50 with SK-MEL-2, in the experiment with PC-3, in the experiment with OVCAR-8, in the experiment on UACC-62, in the experiment with HT-29 and with 786-0 was > 100 µM (inactive) throughout. The GI50 was > 100 µM (inactive) in the experiment on SF-268; 84.9 µM (inactive) with EKVX; > 100 µM (inactive) in the experiment on MDA-MB-435; > 100 µM (inactive) in the experiment with SK-OV-3; > 100 µM (inactive) in the experiment on NCI-H23; > 100 µM (inactive) in the experiment with SN12C. The GI50 in the experiment on M14 was > 100 µM (inactive).

The values above are taken from ChEMBL document CHEMBL1201862, “PubChem BioAssay data set” (2004).
